Here are results for two molecules from patent US6811766B1, “Ultrasound imaging with contrast agent targeted to microvasculature and a vasodilator drug” (Amersham Health AS, priority 1997, dated 2004).

For assay [1], the system named is healthy myocardial tissue. The note with it: adenosine vasodilatation; cited from earlier work.
The nature of assay [2]: Heart rate under continuous dobutamine infusion. The class given is in vivo. Conditions: dog, continuous dobutamine infusion 15 μg/kg/min, stable effect; normal 100 beats per minute. The method, then: Example 1 was repeated except that a continuous infusion of dobutamine at a rate of 15 μg/kg/min was administered in place of adenosine. After a stable dobutamine effect consisting of an increase in heart rate from the normal 100 beats per minute to 150 beats per minute was obtained, the microbubble dispersion and the emulsion were intravenously injected from two syringes as a simultaneous bolus. Infusion of dobutamine was continued for another 2 minutes after the contrast agent injection.

SMILES strings stand for the structures.

On to `Nc1ncnc2c1ncn2[C@@H]1O[C@H](CO)[C@@H](O)[C@H]1O` [adenosine], for which the “increase of coronary blood flow in healthy myocardial tissue” value in assay [1] is “more than 400%”.

Molecule `CC(CCc1ccc(O)cc1)NCCc1ccc(O)c(O)c1` (centres unmarked) [dobutamine] displayed a heart rate in assay [2] of 150 beats per minute.
